{
  "source": "patent US20230321171A1",
  "about": "“ANTI-COCCIDIAL COMPOSITION COMPRISING MANGOSTEEN AND USES THEREOF” (CJ CHEILJEDANG CORPORATION, priority 2020, published 2023)",
  "key": {"[1]": {"system": "MDBK(Madin-Darby Bovine Kidney Epithelial Cells)", "test": "Cytotoxicity, MTS analysis, MDBK", "conditions": "3.1~500 ppm/well, 14 hours + 2 hours MTS, vs 5% DMSO treatment group", "text": "(§1) In the present example, using MTS analysis method (3-(4,5-[…])-5-(3-carboxymethoxyphenyl)-2-(4-sulfophenyl)-2H-tetrazolium, promega, USA), an effect on survival of cells of the mangosteen extract was investigated.\n(§2) The cell lines utilized in cytotoxicity evaluation were (1) MDBK(Madin-Darby Bovine Kidney Epithelial Cells) and (2) RAW264.7(Mouse macrophage cell), and all of them were purchased from ATCC and used.\n(§3) Each cell was aliquoted at a concentration of 1×10^5 cell/well in a 96-well cell culture plate, and cultured at 37° C. for 24 hours, and then each material (mangosteen extract, xanthone, alpha-mangostin and epicatechin) was treated by concentration (3.1˜500 ppm/well) and cultured at a temperature of 37° C."}, "[2]": {"system": "RAW264.7(Mouse macrophage cell)", "test": "Cytotoxicity, MTS analysis, RAW264.7", "conditions": "3.1~500 ppm/well, 14 hours + 2 hours MTS, vs 5% DMSO treatment group", "text": "as §1, §2, §3"}, "Eimeria tenella [3]": {"system": "Eimeria tenella", "test": "Protozoan (sporozoite) direct killing ability, Eimeria tenella", "format": "cell-based", "conditions": "Table 12 comparison with individual components", "experimental": "In the present example, protozoan (sporozoite) direct killing ability evaluation was conducted against 3 representative Eimeria kinds known to be infected in most farms (E. tenella, E. acervulina, E. maxima).\nA certain amount of oocysts of each protozoan was put in a tube containing glass beads and pulverized, and then to remove the crushed oocyst cell wall and other debris, internal sporocysts were purified using the percoll density gradient, and washed with PBS solution. A reagent comprising sodium taurocholic acid (Sigma aldrich, USA) and trypsin (Gibco, USA), respectively, was treated to sporocysts of Eimeria tenella, Eimeria acervulina and Eimeria maxima for excystation and they were incubated, and then they were washed with PBS solution once and protozoa were obtained.\nAfter reacting the mangosteen pericarp extract, epicatechin, alpha-mangostin, xanthone and anticoccidial agents, salinomycin and diclazuril (hereinafter, material) with 3 kinds of Eimeria protozoa at various concentrations of 1 to 500 ppm, respectively, only alive protozoa (sporozoites) were counted through microscopic observation. Then, the death rate (%) of the protozoa when each material was treated compared to the PBS-treated negative control group was calculated and shown in Table 8 to Table 10 and Table 12, respectively, and the minimum concentration which directly killed the protozoa by 100% was shown in Table 11 below."}, "Eimeria tenella [4]": {"system": "Eimeria tenella", "test": "Protozoan (sporozoite) direct killing ability, Eimeria tenella", "format": "cell-based", "conditions": "Table 15, method similar to Example 2-1"}},
  "data": [
    {"smiles": "COc1c(O)cc2oc3cc(O)c(CC=C(C)C)c(O)c3c(=O)c2c1CC=C(C)C", "note": "[Alpha-mangostin, alpha-mangostin]", "values": [
      {"measurement": "Minimum concentrataion of cytotoxicity at which cells of 50% or more survive (ppm)", "setting": "[1]", "result": "≥7.8", "unit": "ppm"},
      {"measurement": "Minimum concentrataion of cytotoxicity at which cells of 50% or more survive (ppm)", "setting": "[2]", "result": "≥15.6", "unit": "ppm"},
      {"measurement": "Eimeria tenella protozoal death rate", "setting": "Eimeria tenella [3]; 3.9 ppm", "result": 23.3, "unit": "%"},
      {"measurement": "Eimeria tenella protozoal death rate", "setting": "Eimeria tenella [3]; 7.8 ppm", "result": 50, "unit": "%"},
      {"measurement": "Eimeria tenella protozoal death rate", "setting": "Eimeria tenella [3]; 15.6 ppm", "result": 93.3, "unit": "%"},
      {"measurement": "Minimum concentrataion of killing protozoa 100% (ppm)", "setting": "Eimeria tenella [4]", "result": "≥31.3", "unit": "ppm"}
    ]}
  ]
}
